# Experimental data published in patent publication US6166008A, “Treatment of schizophrenia with ampakines and neuroleptics” (Cortex Pharmaceuticals, Inc., priority 1998, dated 2000).
# Entries after “also recorded” stand apart in the source; their conditions may differ. Structures can show the parent of a compound that is named as a salt.
# Assays:
# [1] = tested on: methamphetamine-induced locomotor activity; assay: Methamphetamine-induced locomotor activity / crossing (photobeam system); conditions: for Percent Reduction in Methamphetamine Induced Activity: Crossing: Table 1; for reduction of METH LMA: text of Example 3, locomotor activity, haloperidol 0.06 mg/kg, combination p<0.005 vs METH+HAL
# Text: (§4) In the present experiments, male Sprague-Dawley rats (250-300 g; Charles River Laboratories) were given ad libitum food and water and maintained on a 12:12 hr light:dark cycle with lights on at 6:00 AM. […] Locomotor and rearing activities were continuously monitored by computer for all ten test cages. Test cages (with photobeam arrays) were placed in a partially darkened room with room ventilation as background noise. On the test day, naive rats were initially placed in the test cages and baseline behavioral activity in the novel environment was monitored during a 30-minute acclimation period. The rats were then injected (i.p.) with vehicle or drug(s) dissolved in vehicle and immediately returned to the test cage and monitored undisturbed for 90 minutes.
# (§5) Behavioral experiments were repeated at least twice for each condition. Photobeam breaks were summed by the computer into ten-minute periods for analysis. Group means and standard errors are reported in the figures; means and standard deviations were used for statistical analysis by unpaired, two-tailed t test assuming unequal variance.
# Adrenergic receptor = assay: Radioligand binding, [^3 H]-Prazosin
# Text: (§1) Table 2 presents the results of radioligand binding studies that show a lack of interaction between Ampakines and dopaminergic or serotonergic receptors.
# (§2) Radioligand Binding Analysis of Potential Interactions between
# (§3) Select Ampakines and Select Neurotransmitter Receptors
# [2] = tested on: methamphetamine-induced rearing activity; assay: Methamphetamine-induced stereotypic rearing activity (photobeam system); conditions: for total cumulative rearing activity during the 90 minute period after drug administration: FIG. 2, METH 2 mg/kg in all, combination p<0.0005 vs METH+clozapine, saline 56±9; for total cumulative rearing activity during the 90 minute period after drug administration / total rearing activity during the 90 minute test period: i.p., mean±standard error; for reduction of methamphetamine-induced rearing activity: FIG. 3 legend; for total rearing activity during the 90 minute test period: FIG. 4, METH in all, combination p<0.0005 vs METH+HAL, saline 53±11; for Percent Reduction in Methamphetamine Induced Activity: Rearing: Table 1; for reduction of METH-induced rearing: risperidone 0.1 mg/kg, combination p<0.01 vs METH+RISP
# Text: as §4, §5
# AMPA receptors = assay: Field EPSP amplitude in rat hippocampal slices; assay type: cell-based; conditions: field CA1, read-out: EC50 values to increase the amplitude of the field EPSP
# Protocol: The physiological effects of Ampakines may be tested in vitro with slices of rat hippocampus according to the following procedure. Excitatory responses (field EPSPs) are measured in hippocampal slices, which are maintained in a recording chamber continuously perfused with artificial cerebrospinal fluid (ACSF). During a 15-30 minute interval, the perfusion medium is switched to one containing various concentrations of the test compounds. Responses collected immediately before and at the end of drug perfusion were superimposed in order to calculate both the percent increase in EPSP amplitude and percent increase in the width of the response at one-half the peak height (half-width). […]
# Current pulses (0.1 msec) through the stimulating electrode activate a population of the Schaffer-commissural (SC) fibers which arise from neurons in the field CA3 and terminate in synapses on the dendrites of CA1 neurons. […] This current results in a voltage in the extracellular space (the field excitatory post-synaptic potential or field "EPSP") which is recorded by a high impedance recording electrode positioned in the middle of the stratum radiatum of CA1. […]
# Dopaminergic receptor = assay: Radioligand binding, [^3 H]-Spiperone
# Text: as §1, §2, §3
# [3] = tested on: AMPA-type glutamate receptors; assay: Specificity for AMPA-type glutamate receptors
# Text: as §1
# Muscarinic receptor = assay: Radioligand binding, [^3 H]-QNB
# Text: as §1, §2, §3
# Serotoninergic receptor = assay: Radioligand binding, [^3 H]-dLSD
# Text: as §1, §2, §3
# D2 dopamine receptor = conditions: typical antipsychotics; cited from earlier work
# serotonin receptors = conditions: atypical antipsychotics; cited from earlier work
# dopamine receptors = conditions: atypical antipsychotics; cited from earlier work
# [4] = peripheral administration in humans; Guenzi and Zanetti; cited from earlier work
# psychotic symptoms = conditions: cited from earlier work; for effect on symptoms in patients: Lahti et al.; for effect in volunteers: Krystal et al.
# behavior in animals = conditions: Freed et al.; cited from earlier work
# [5] = clozapine 1 mg/kg experiment, CX516 10 mg/kg
# [6] = fluphenazine 0.2 mg/kg experiment, CX516 10 mg/kg
# [7] = haloperidol 0.06 mg/kg experiment, CX516 30 mg/kg
# [8] = risperidone 0.1 mg/kg experiment, CX516 10 mg/kg
# [9] = clozapine 1.0 mg/kg, CX516 10 mg/kg
# [10] = clozapine experiment, METH 2 mg/kg i.p., clozapine 1.0 mg/kg, CX516 10 mg/kg
# [11] = haloperidol experiment, HAL 0.06 mg/kg, CX516 30 mg/kg
# [12] = text of Example 2, CX516 10 mg/kg
smiles,measurement,setting,value
"O=C(c1ccc2nccnc2c1)N1CCCCC1 [CX516, 1-(Quinoxalin-6-ylcarbonyl)piperidine]",Percent Reduction in Methamphetamine Induced Activity: Crossing,[1]; [5],-32%
same,Percent Reduction in Methamphetamine Induced Activity: Crossing,[1]; [6],47%
same,Percent Reduction in Methamphetamine Induced Activity: Crossing,[1]; [7],10%
same,Percent Reduction in Methamphetamine Induced Activity: Crossing,[1]; [8],0%
same,reduction of METH LMA,[1]; CX516 30 mg/kg,10%
same,% Inhibition of ligand binding,Adrenergic receptor; 1E-5 Molar,-0.2%
same,% Inhibition of ligand binding,Adrenergic receptor; 1E-7 Molar,-3.5%
same,% Inhibition of ligand binding,Adrenergic receptor; 1E-9 Molar,0.0%
same,total cumulative rearing activity during the 90 minute period after drug administration,[2]; [9],495±78
same,reduction of methamphetamine-induced rearing activity,"[2]; CX516 30 mg/kg, HAL 0.06 mg/kg",23%
same,total rearing activity during the 90 minute test period,"[2]; HAL 0.06 mg/kg, CX516 30 mg/kg",863±169
same,Percent Reduction in Methamphetamine Induced Activity: Rearing,[2]; [5],34%
same,Percent Reduction in Methamphetamine Induced Activity: Rearing,[2]; [6],37%
same,Percent Reduction in Methamphetamine Induced Activity: Rearing,[2]; [7],23%
same,Percent Reduction in Methamphetamine Induced Activity: Rearing,[2]; [8],28%
same,effect on methamphetamine-induced rearing,[2]; [10],"synergistically enhanced the antagonistic activity of clozapine; also recorded: synergistically enhances clozapine antagonism of methamphetamine-induced rearing activity; also recorded: small, but statistically insignificant antagonism of methamphetamine-induced rearing"
same,effect on methamphetamine-induced rearing,[2]; [11],"modest, non-significant antagonism; also recorded: synergistically enhances haloperidol antagonism of methamphetamine-induced stereotypic rearing activity; also recorded: Neither CX516 (30 mg/kg) nor HAL (0.06 mg/kg) significantly reduced methamphetamine-induced rearing activity"
same,reduction of METH-induced rearing,[2]; [12],28%
same,antagonism of METH-induced rearing activity,"[2]; text of Example 2, clozapine 1.0 mg/kg alone, CX516 10 mg/kg alone",34%
same,reduction of METH-induced stereotypic rearing activity,"[2]; text of Example 3, haloperidol 0.06 mg/kg, CX516 30 mg/kg, combination p<0.0005 vs haloperidol alone",22%
same,EC50,AMPA receptors,180 µM
same,% Inhibition of ligand binding,Dopaminergic receptor; 1E-5 Molar,-2.8%
same,% Inhibition of ligand binding,Dopaminergic receptor; 1E-7 Molar,0.6%
same,% Inhibition of ligand binding,Dopaminergic receptor; 1E-9 Molar,-5.1%
same,specificity for AMPA-type glutamate receptors,[3],quite specific for AMPA-type glutamate receptors
same,% Inhibition of ligand binding,Muscarinic receptor; 1E-5 Molar,5.3%
same,% Inhibition of ligand binding,Muscarinic receptor; 1E-7 Molar,0.4%
same,% Inhibition of ligand binding,Muscarinic receptor; 1E-9 Molar,5.5%
same,% Inhibition of ligand binding,Serotoninergic receptor; 1E-5 Molar,9.1%
same,% Inhibition of ligand binding,Serotoninergic receptor; 1E-7 Molar,9.9%
same,% Inhibition of ligand binding,Serotoninergic receptor; 1E-9 Molar,5.5%
O=C(c1ccc2nonc2c1)N1CCCCC1 [CX691],% Inhibition of ligand binding,Adrenergic receptor; 1E-4 Molar,7.0%
same,% Inhibition of ligand binding,Adrenergic receptor; 1E-7 Molar,-7.5%
same,EC50,AMPA receptors,3 µM
same,% Inhibition of ligand binding,Dopaminergic receptor; 1E-4 Molar,10.7%
same,% Inhibition of ligand binding,Dopaminergic receptor; 1E-7 Molar,6.1%
same,specificity for AMPA-type glutamate receptors,[3],quite specific for AMPA-type glutamate receptors
same,% Inhibition of ligand binding,Muscarinic receptor; 1E-4 Molar,-3.7%
same,% Inhibition of ligand binding,Muscarinic receptor; 1E-7 Molar,-8.0%
same,% Inhibition of ligand binding,Serotoninergic receptor; 1E-4 Molar,27.0%
same,% Inhibition of ligand binding,Serotoninergic receptor; 1E-7 Molar,1.6%
"OCCN1CCN(CCCN2c3ccccc3Sc3ccc(C(F)(F)F)cc32)CC1 [Fluphenazine, reference compound]",Percent Reduction in Methamphetamine Induced Activity: Crossing,[1]; [6],54%
same,D2 dopamine receptor antagonism,D2 dopamine receptor,potently antagonize the D2 dopamine receptor
same,Percent Reduction in Methamphetamine Induced Activity: Rearing,[2]; [6],57%
"O=C(CCCN1CCC(O)(c2ccc(Cl)cc2)CC1)c1ccc(F)cc1 [Haloperidol, reference compound]",Percent Reduction in Methamphetamine Induced Activity: Crossing,[1]; [7],9%
same,reduction of METH LMA,[1]; CX516 30 mg/kg,9%
same,D2 dopamine receptor antagonism,D2 dopamine receptor,potently antagonize the D2 dopamine receptor
same,reduction of methamphetamine-induced rearing activity,"[2]; CX516 30 mg/kg, HAL 0.06 mg/kg",16%
same,total rearing activity during the 90 minute test period,"[2]; HAL 0.06 mg/kg, CX516 30 mg/kg",934±119
same,Percent Reduction in Methamphetamine Induced Activity: Rearing,[2]; [7],16%
same,effect on methamphetamine-induced rearing,[2]; [11],"modest, non-significant antagonism"
same,effect on methamphetamine-induced rearing,"[2]; haloperidol experiment, HAL 0.06 mg/kg, CX516 30 mg/kg, listed as HAL",Neither CX516 (30 mg/kg) nor HAL (0.06 mg/kg) significantly reduced methamphetamine-induced rearing activity
"CN[C@@H](C)Cc1ccccc1 [METH, S-(+)-methamphetamine HCl, reference compound]",total cumulative rearing activity during the 90 minute period after drug administration,[2]; [9],724±136
same,total rearing activity during the 90 minute test period,"[2]; HAL 0.06 mg/kg, CX516 30 mg/kg",1105±161
same,effect on methamphetamine-induced rearing,[2]; [10],large induction of rearing activity
"Cc1nc2n(c(=O)c1CCN1CCC(c3noc4cc(F)ccc34)CC1)CCCC2 [Risperidone, reference compound]",Percent Reduction in Methamphetamine Induced Activity: Crossing,[1]; [8],43%
same,serotonin receptor antagonism,serotonin receptors,potent antagonists at serotonin receptors
same,dopamine receptor antagonism,dopamine receptors,relatively potent antagonists at dopamine receptors
same,Percent Reduction in Methamphetamine Induced Activity: Rearing,[2]; [8],51%
same,reduction of METH-induced rearing,[2]; [12],51%
"COc1ccc(C(=O)N2CCCC2=O)cc1 [aniracetam, N-anisoyl-2-pyrrolidinone]",fraction of drug converted to anisoyl-GABA,[4],about 80%
CN(C)CCCN1c2ccccc2Sc2ccc(Cl)cc21 [chlorpromazine],D2 dopamine receptor antagonism,D2 dopamine receptor,potently antagonize the D2 dopamine receptor
CNC1(c2ccccc2Cl)CCCCC1=O (stereo not shown) [ketamine],effect on symptoms in patients,psychotic symptoms,exacerbate symptoms in patients
same,effect in volunteers,psychotic symptoms,produce a range of psychotic symptoms in volunteers
same,effect on behavior in animals,behavior in animals,produce aberrant behavior in animals
Cc1cc2c(s1)Nc1ccccc1N=C2N1CCN(C)CC1 [olanzapine],serotonin receptor antagonism,serotonin receptors,potent antagonists at serotonin receptors
same,dopamine receptor antagonism,dopamine receptors,relatively potent antagonists at dopamine receptors
c1ccc(C2(N3CCCCC3)CCCCC2)cc1 [phencyclidine],effect on symptoms in patients,psychotic symptoms,exacerbate symptoms in patients
same,effect in volunteers,psychotic symptoms,produce a range of psychotic symptoms in volunteers
same,effect on behavior in animals,behavior in animals,produce aberrant behavior in animals
